# Laboratory results as given in patent publication US20260101893A1, “FUNGICIDAL COMPOSITIONS” (SYNGENTA CROP PROTECTION AG, priority 2022, published 2026).
# How the values were obtained:
# Assay type in all cases: cell-based
# [1] = tested on: Zymoseptoria tritici (Septoria tritici); test: Fungicidal activity against Zymoseptoria tritici (Septoria tritici) (leaf blotch), liquid culture in PDB, 96-well microtiter plate
# Experimental: (§1) Fungicidal activity against Zymoseptoria tritici (Septoria tritici) (leaf blotch) Conidia of the fungus from cryogenic storage were directly mixed into nutrient broth (PDB potato dextrose broth). A DMSO solution of the test compounds was placed into a microtiter plate (96-well format) and the nutrient broth containing the fungal spores was added to it. The test plates were incubated at 24° C. and after 72 hours the fungal growth was assessed visually and compared to the growth in untreated wells. The scores were recorded as % control compared to the untreated wells. The action to be expected E for a given active ingredient combination was calculated using the COLBY formula as follows: • ppm=milligrams of active ingredient (=a.i.) per liter of spray mixture • X=% action by active ingredient (A) using p ppm of active ingredient • Y=% action by active ingredients (B+C) using q ppm of active ingredient. According to COLBY, the expected (additive) action of active ingredients (A)+(B+C) using p+q ppm of active ingredient is: [formula]
# [2] = tested on: Glomerella lagenarium (Colletotrichum lagenarium); test: Fungicidal activity against Glomerella lagenarium (Colletotrichum lagenarium) liquid culture/cucumber/preventative (Anthracnose)
# Experimental: as §1, with “Glomerella lagenarium (Colletotrichum lagenarium) liquid culture/cucumber/preventative (Anthracnose)” for “Zymoseptoria tritici (Septoria tritici) (leaf blotch)”
# [3] = tested on: Mycosphaerella arachidis Syn. Cercospora arachidicola; test: Fungicidal activity against Mycosphaerella arachidis syn. Cercospora arachidicola (brown leaf spot), liquid culture in PDB, 96-well microtiter plate
# Experimental: as §1, with “Activity Against Mycosphaerella arachidis Syn. Cercospora arachidicola (Brown Leaf Spot)” for “activity against Zymoseptoria tritici (Septoria tritici) (leaf blotch)”, “5 days” for “72 hours”
compound,measurement,setting,value
"CO/C=C(\Oc1cc(C2CCCCC2)ccc1C)C(=O)OC [Compound X.04, methyl (Z)-2-(5-cyclohexyl-2-methyl-phenoxy)-3-methoxy-prop-2-enoate]",% control Score,[1]; X.04 0.02 ppm,0%
same,% control Score,[1]; X.04 0.02 ppm alone,0%
same,% control Score,"[1]; X.04 0.02 ppm, Table B2",0%
same,% control Score,[1]; X.04 0.07 ppm,0%
same,% control Score,[1]; X.04 0.07 ppm alone,0%
same,% control Score,"[1]; X.04 0.07 ppm, Table B2",0%
same,% control Score,[1]; X.04 0.2 ppm,0%
same,% control Score,[1]; X.04 0.2 ppm alone,0%
same,% control Score,"[1]; X.04 0.2 ppm, Table B2",0%
same,Zymoseptoria tritici % control Score,[1]; ppm: X.04 0.02,0%
same,Zymoseptoria tritici % control Score,[1]; ppm: X.04 0.07,0%
same,Zymoseptoria tritici % control Score,[1]; ppm: X.04 0.2,0%
same,% control Score,[2]; X.04 0.02 ppm,0%
same,% control Score,[2]; X.04 0.02 ppm alone,0%
same,% control Score,"[2]; X.04 0.02 ppm, Table B2",0%
same,% control Score,[2]; X.04 0.07 ppm,70%
same,% control Score,[2]; X.04 0.07 ppm alone,70%
same,% control Score,"[2]; X.04 0.07 ppm, Table B2",70%
same,% control Score,[2]; X.04 0.2 ppm,100%
same,% control Score,[2]; X.04 0.2 ppm alone,100%
same,% control Score,"[2]; X.04 0.2 ppm, Table B2",100%
same,Colletotrichum lagenarium % control Score,[2]; ppm: X.04 0.02,0%
same,Colletotrichum lagenarium % control Score,[2]; ppm: X.04 0.07,70%
same,Colletotrichum lagenarium % control Score,[2]; ppm: X.04 0.2,100%
same,% control Score,[3]; X.04 0.02 ppm,70%
same,% control Score,[3]; X.04 0.02 ppm alone,70%
same,% control Score,"[3]; X.04 0.02 ppm, Table B2",70%
same,% control Score,[3]; X.04 0.07 ppm,70%
same,% control Score,[3]; X.04 0.07 ppm alone,90%
same,% control Score,"[3]; X.04 0.07 ppm, Table B2",90%
same,% control Score,[3]; X.04 0.2 ppm,70%
same,% control Score,[3]; X.04 0.2 ppm alone,90%
same,% control Score,"[3]; X.04 0.2 ppm, Table B2",90%
same,Mycosphaerella arachidis % control Score,[3]; ppm: X.04 0.02,70%
same,Mycosphaerella arachidis % control Score,[3]; ppm: X.04 0.07,90%
same,Mycosphaerella arachidis % control Score,[3]; ppm: X.04 0.2,90%
